The text below walks through data of patent US20220227773A1, “FUSED RING COMPOUND, PREPARATION METHOD THEREFOR AND USE THEREOF” (SHANGHAI INSTITUTE OF MATERIA MEDICA, CHINESE ACADEMY OF …, priority 2019, published 2022).

Where two headings read alike, the source gives them in different places.

The target in assay [1] is T1, hSERT (5-HTT) in HEK293-hSERT cells (Homo sapiens, UniProt P31645).
T1 construct: expressed in transfected cells; host or cells: HEK293
Put plainly: 5-HTT reuptake activity assay (fluorescence neurotransmitter transporter uptake kit). It counts as cell-based. The note with it: serotonin reuptake inhibition.

Assay [2] concerns mice. In words: Forced swimming test (FST) in mice. Format: in vivo. The note with it: Mus musculus. Here is the method: 3. In Vivo Drug Efficacy Test (Mouse Forced Swimming Model)
Experimental animals: C57BL/6 mice (Shanghai Xipuer-Bikai Experimental Animal Co., Ltd.), male, 6 weeks old, weighing 15-20 g. ICR mice (Shanghai Xipuer-Bikai Experimental Animal Co., Ltd.), male, 6 weeks old, weighing 20-25 g. All the ordered mice were fed in a standard environment for 2-3 weeks before test.
Forced Swimming Test (FST): in the forced swimming apparatus, the water level is 45 cm, and the water temperature is 25° C. Before the experiment, the mice were placed in the experimental room for 1 h for adapting to the environment. At the beginning of the experiment, the mice were placed in the apparatus for 6min, and the whole process was recorded with a camera. When analyzing the data, only the immobility time of the mice in the last 4 min was counted, and the result was expressed by mean±SD.
The results were analyzed by one-way analysis of variance. […] FST: Forced swimming test; TST: Tail suspension test.

Assay [3] deals with T2, human recombinant 5-HT3 receptor (Homo sapiens, UniProt P46098).
T2 construct: expressed in transfected cells; host or cells: HEK293 (membrane preparation)
T2 sequence (P46098 24-478): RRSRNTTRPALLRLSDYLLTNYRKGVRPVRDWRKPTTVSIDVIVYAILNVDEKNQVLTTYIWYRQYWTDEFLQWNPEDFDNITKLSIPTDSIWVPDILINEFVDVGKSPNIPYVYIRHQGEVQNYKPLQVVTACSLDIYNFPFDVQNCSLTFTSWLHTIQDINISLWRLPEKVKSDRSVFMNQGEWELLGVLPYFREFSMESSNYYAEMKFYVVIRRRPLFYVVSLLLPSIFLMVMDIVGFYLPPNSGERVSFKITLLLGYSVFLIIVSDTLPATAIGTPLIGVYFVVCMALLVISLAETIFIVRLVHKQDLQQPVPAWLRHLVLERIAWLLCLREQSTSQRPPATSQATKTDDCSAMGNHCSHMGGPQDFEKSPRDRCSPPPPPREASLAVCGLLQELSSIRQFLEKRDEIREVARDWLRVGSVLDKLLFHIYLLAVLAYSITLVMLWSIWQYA
Put plainly: 5-HT3 receptor affinity assay (3H-BRL 43694 radioligand binding). The note with it: read-out: inhibition (%) at 1 μM.

The mark [4] stands for this setting: po, read-out: Effective dose (mg/kg).
Setting [5] is: 1 μM compound, 0.5 nM 3H-BRL 43694, HEK293 membranes.
Where [6] appears, read: ip, read-out: Effective dose (mg/kg).

T1 sequence (P31645 whole entry): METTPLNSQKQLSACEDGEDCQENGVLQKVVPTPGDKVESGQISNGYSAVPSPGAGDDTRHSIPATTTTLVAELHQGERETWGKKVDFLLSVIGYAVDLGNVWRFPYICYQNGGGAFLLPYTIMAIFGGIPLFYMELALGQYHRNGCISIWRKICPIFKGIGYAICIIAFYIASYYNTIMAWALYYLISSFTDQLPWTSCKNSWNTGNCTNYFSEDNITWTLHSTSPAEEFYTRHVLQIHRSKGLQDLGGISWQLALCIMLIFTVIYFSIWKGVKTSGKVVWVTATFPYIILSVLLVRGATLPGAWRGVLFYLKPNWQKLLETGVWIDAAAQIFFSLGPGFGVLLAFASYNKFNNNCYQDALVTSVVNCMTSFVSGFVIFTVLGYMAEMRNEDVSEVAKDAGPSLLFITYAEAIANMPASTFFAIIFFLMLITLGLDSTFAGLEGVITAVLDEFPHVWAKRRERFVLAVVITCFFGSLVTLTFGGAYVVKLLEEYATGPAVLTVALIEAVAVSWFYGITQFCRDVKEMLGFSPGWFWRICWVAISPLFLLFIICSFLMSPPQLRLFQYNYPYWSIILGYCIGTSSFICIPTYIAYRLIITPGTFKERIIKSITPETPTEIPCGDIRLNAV

`c1ccc2cc(N3CC4CNCC4C3)ccc2c1` (stereo not drawn) [Example 1, 2-(naphthalen-2-yl)octahydropyrrolo[3,4-c]pyrrole]: in assay [1], the IC50 (as a rule, the point on the concentration scale where inhibition reaches its midpoint) is less than 0.01 µM. Further, the minimal effective dose in assay [2] (setting [4]) came out at 5 mg/kg. Also, the inhibition (usually the change of the read-out against control, counted positive when it falls) at 1 µM in assay [3] is 106%.

In the case of `CN1CC2CN(c3ccc4ccccc4c3)CC2C1` (stereo not drawn) [Example 2, 2-methyl-5-(naphthalen-2-yl)octahydropyrrolo[3,4-c]pyrrole], the IC50 in assay [1] was less than 0.01 µM. Besides, the minimal effective dose in assay [2] (setting [4]) amounted to 5 mg/kg. Further, the inhibition at 1 µM in assay [3] (setting [5]) was determined as 97%.

On to `O=C(O)/C=C\C(=O)O.c1cc(N2CC3CNCC3C2)c2sccc2c1` (stereo not drawn) [Example 10, 2-(Benzo[b]thiophen-7-yl)octahydropyrrolo[3,4-c]pyrrole maleate], for which the IC50 in assay [1] is less than 0.05 µM. Also, the minimal effective dose in assay [2] (setting [6]) was determined as 10 mg/kg. In addition, the inhibition at 1 µM in assay [3] was 86%.

On to `CN1CC2CN(c3cccc4ccsc34)CC2C1.O=C(O)C(=O)O` (stereo not drawn) [Example 11, 2-(Benzo[b]thiophen-7-yl)-5-methyloctahydropyrrolo[3,4-c]pyrrole oxalate], for which, in assay [1], the IC50 was less than 0.05 µM. Also, the minimal effective dose in assay [2] (setting [6]) came out at 10 mg/kg. Also, the inhibition at 1 µM in assay [3] (setting [5]) is 86%.

In assay [1], `O=C(O)/C=C\C(=O)O.c1cc(N2CC3CNCC3C2)c2ccsc2c1` (stereo not drawn) [Example 12, 2-(Benzo[b]thiophen-4-yl)octahydropyrrolo[3,4-c]pyrrole maleate] had an IC50 of less than 0.05 µM. The minimal effective dose in assay [2] (setting [6]) was 3 mg/kg. Moreover, the inhibition at 1 µM in assay [3] is 101%.

In turn, `Br.CN1CC2CN(c3cccc4sccc34)CC2C1` (stereo not drawn) [Example 13, 2-(Benzo[b]thiophen-4-yl)-5-methyloctahydropyrrolo[3,4-c]pyrrole hydrobromide] displayed an IC50 in assay [1] of less than 0.05 µM. In addition, the minimal effective dose in assay [2] (setting [6]) was 5 mg/kg. Also, the inhibition at 1 µM in assay [3] turned out to be 70%.

Regarding `O=C(O)/C=C\C(=O)O.c1cc2cc(N3CC4CNCC4C3)ccc2s1` (stereo not drawn) [Example 14, 2-(Benzo[b]thiophen-5-yl)octahydropyrrolo[3,4-c]pyrrole maleate], in assay [1], the IC50 is less than 0.01 µM. Also, the minimal effective dose in assay [2] (setting [6]) amounted to 3 mg/kg. In assay [3], the inhibition at 1 µM came out at 99%.

In assay [1], `CN1CC2CN(c3ccc4sccc4c3)CC2C1.Cl` (stereo not drawn) [Example 15, 2-(Benzo[b]thiophen-5-yl)-5-methyloctahydropyrrolo[3,4-c]pyrrole hydrochloride] gave an IC50 of less than 0.01 µM. In addition, the minimal effective dose in assay [2] (setting [4]) was found to be 2.5 mg/kg. Besides, in assay [3] (setting [5]), the inhibition at 1 µM was determined as 70%.

`Clc1ccc(N2CC3CNCC3C2)cc1Cl` (stereo not drawn) [Example 16, 2-(3,4-dichlorophenyl)octahydropyrrolo[3,4-c]pyrrole] returned an IC50 in assay [1] of less than 0.01 µM. Also, in assay [2] (setting [6]), the minimal effective dose worked out at 3 mg/kg. The inhibition at 1 µM in assay [3] (setting [5]) was found to be 96%.

In turn, `CN1CC2CN(c3ccc(Cl)c(Cl)c3)CC2C1` (stereo not drawn) [Example 17, 2-(3,4-dichlorophenyl)-5-methyloctahydropyrrolo[3,4-c]pyrrole] returned an IC50 in assay [1] of less than 0.01 µM. Also, the minimal effective dose in assay [2] (setting [4]) was 5 mg/kg. In assay [3] (setting [5]), the inhibition at 1 µM was found to be 93%.

In assay [1], `Fc1c(N2CC3CNCC3C2)ccc2ccccc12.O=C(O)/C=C\C(=O)O` (stereo not drawn) [Example 31, 2-(1-fluoronaphthalen-2-yl)octahydropyrrolo[3,4-c]pyrrole maleate] yielded an IC50 of less than 0.01 µM. Besides, the minimal effective dose in assay [2] (setting [4]) stood at 20 mg/kg. Moreover, the inhibition at 1 µM in assay [3] was 101%.

Regarding `CN1CC2CN(c3ccc4ccccc4c3F)CC2C1.O=C(O)/C=C\C(=O)O` (stereo not drawn) [Example 32, 2-(1-fluoronaphthalen-2-yl)-5-methyloctahydropyrrolo[3,4-c]pyrrole maleate], the 50% inhibitory concentration (IC50) in assay [1] was less than 0.01 µM. Moreover, in assay [2] (po, FST, dose significantly reducing immobility time of mice, read-out: Effective dose), the minimal effective dose is 20 mg/kg. Besides, the inhibition at 1 µM in assay [3] stood at 103%.

Regarding `Clc1ccc(N2CCC3CNCC3CC2)cc1Cl` (stereo not drawn) [Example 35, 6-(3,4-dichlorophenyl)decahydropyrrolo[3,4-d]azepine], the IC50 in assay [1] was less than 0.01 µM. Moreover, the minimal effective dose in assay [2] (setting [4]) was 20 mg/kg. Moreover, the inhibition at 1 µM in assay [3] (setting [5]) was determined as 98%.
